Assay results reported in US11135308B2, “Maytansinoid derivatives with self-immolative peptide linkers and conjugates thereof” (priority 2017, dated 2021).

Columns and labels:
[1] = system: H1703 Cells; test: In vitro cytotoxicity of predominant ADC metabolites, H1703; type: cell-based
Experimental: (§1) Assays were performed in flat bottom 96-well plates in triplicate for each data point. Test articles were first diluted in complete cell culture media using 5-fold dilution series and 100 μL were added into each well. The final concentrations typically ranged from 3×10^−8 M to 8×10^−14 M. The target cells were then added to the test articles at 1,500 to 3,000 cells per well in 100 μL of complete culture media. The mixtures were incubated at 37° C. in a humidified 5% CO2 incubator for 5 days. Viability of the remaining cells was determined by the WST-8 (Tetrazolium salt-8; 2-(2-methoxy-4-nitrophenyl)-3-(4-nitrophenyl)-5-(2,4-disulfophenyl)-2H-tetrazolium) based colorimetric assay using the Cell Counting Kit-8 (Dojindo Molecular Technologies, Inc., Rockville, Md.). The WST-8 is reduced by dehydrogenases in live cells to give a yellow-colored formazan product that is soluble in tissue culture media. […] The WST-8 signals were then measured using a microplate plate reader at optical density of 450 nm. The surviving fraction was calculated by dividing the value of each treated sample by the average value of untreated controls, and plotted against the test article concentrations in a semi-log plot for each treatment. IC50 values were determined using nonlinear regression (curve fit) with GraphPad Prism v5 program (GraphPad Software, La Jolla, Calif.). […]

[2] = system: H1975 Cells; test: In vitro cytotoxicity of predominant ADC metabolites, H1975; type: cell-based
Experimental: as §1

[3] = system: COLO704 Cells; test: In vitro cytotoxicity of predominant ADC metabolites, COLO704; type: cell-based
Experimental: as §1

[4] = system: FRα-expressing KB cells; test: In vitro metabolism study in KB cells; type: in vitro ADME; settings: KB cells treated with saturating amount of 17c conjugate for 24 hours; UHPLC/HRMS
Experimental: FRα-expressing KB cells were treated with a saturating amount of 17c conjugate for 24 hours. Catabolite-containing media was incubated with 5 mM NEM to cap any free thiol present and then captured by pre-bound protein A-anti-maytansinoid antibody complex. The catabolites were released by acetone extraction, and analyzed by UHPLC/HRMS.

| Compound | IC50 [1] [pM] | IC50 [2] [pM] | IC50 [3] [pM] | catabolites identified in cell culture media [4] |
| --- | --- | --- | --- | --- |
| COc1cc2cc(c1Cl)N(C)C(=O)C[C@H](OC(=O)[C@H](C)N(C)C(=O)CCCSC)[C@]1(C)O[C@H]1[C@H](C)[C@@H]1C[C@@](O)(NC(=O)O1)[C@H](OC)/C=C/C=C(\C)C2 [metabolite 25b, DM-CO—(CH2)3-SMe] | 5.92 | 5.6 | 6.88 | – |
| COc1cc2cc(c1Cl)N(C)C(=O)C[C@H](OC(=O)[C@H](C)N(C)C(=O)CCCCCSC)[C@]1(C)O[C@H]1[C@H](C)[C@@H]1C[C@@](O)(NC(=O)O1)[C@H](OC)/C=C/C=C(\C)C2 [metabolite 25a, DM-CO—(CH2)5-SMe] | 2.27 | – | 3.04 | major effluxed catabolites |
